Assay results from the supplement of paper PMC10883282.
± gives the standard deviation of the averaged measurements.

Test system: SW684
Experiment: relative viability vs DMSO control (72 h) (fraction); higher = more viable cells
How it was run: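 Sarcoma cell lines were plated in 384 wells to reach 80–90% confluence, treated after 24 h with 2.5 µl of serially diluted compound and held 72 h at 37 °C, 5% CO2. Relative viability was taken as percent growth from ATPLite readings, averaged over up to triplicate wells. The values were rescaled so that 1 marks full and 0 marks none.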

## CNC(=O)c1ccc(-c2cnc3ncc(Cc4ccc5ncccc5c4)n3n2)cc1F [Capmatinib]
0.00017 µM
  relative viability: 1.19 ± 0.017
0.00051 µM
  relative viability: 1.2 ± 0.043
0.00152 µM
  relative viability: 1.19 ± 0.047
0.00457 µM
  relative viability: 1.15 ± 0.056
0.01372 µM
  relative viability: 1.12 ± 0.046
0.04115 µM
  relative viability: 1.127 ± 0.0092
0.1235 µM
  relative viability: 1.13 ± 0.029
0.3704 µM
  relative viability: 1.14 ± 0.085
1.111 µM
  relative viability: 1.17 ± 0.06
3.333 µM
  relative viability: 1.13 ± 0.052
10 µM
  relative viability: 1.05 ± 0.045

## CCN1CCN(Cc2ccc(Nc3ncc(F)c(-c4cc(F)c5nc(C)n(C(C)C)c5c4)n3)nc2)CC1 [Abemaciclib]
0.00017 µM
  relative viability: 1.13 ± 0.036
0.00051 µM
  relative viability: 1.16 ± 0.06
0.00152 µM
  relative viability: 1.13 ± 0.048
0.00457 µM
  relative viability: 1.12 ± 0.035
0.01372 µM
  relative viability: 1.1 ± 0.051
0.04115 µM
  relative viability: 1.11 ± 0.051
0.1235 µM
  relative viability: 1.04 ± 0.037
0.3704 µM
  relative viability: 0.894 ± 0.059
1.111 µM
  relative viability: 0.781 ± 0.028
3.333 µM
  relative viability: 0.832 ± 0.027
10 µM
  relative viability: 0.825 ± 0.035

## C=CC(=O)N1CCC[C@@H](n2nc(-c3ccc(Oc4ccccc4)cc3)c3c(N)ncnc32)C1 [Ibrutinib]
0.00017 µM
  relative viability: 1.18 ± 0.037
0.00051 µM
  relative viability: 1.22 ± 0.063
0.00152 µM
  relative viability: 1.2 ± 0.016
0.00457 µM
  relative viability: 1.22 ± 0.026
0.01372 µM
  relative viability: 1.17 ± 0.054
0.04115 µM
  relative viability: 1.24 ± 0.054
0.1235 µM
  relative viability: 1.15 ± 0.12
0.3704 µM
  relative viability: 1.24 ± 0.061
1.111 µM
  relative viability: 1.26 ± 0.078
3.333 µM
  relative viability: 1.3 ± 0.071
10 µM
  relative viability: 1.06 ± 0.031

## Cn1cnc2c(F)c(Nc3ccc(Br)cc3F)c(C(=O)NOCCO)cc21 [Binimetinib]
0.00017 µM
  relative viability: 1.12 ± 0.038
0.00051 µM
  relative viability: 1.17 ± 0.046
0.00152 µM
  relative viability: 1.11 ± 0.03
0.00457 µM
  relative viability: 1.11 ± 0.028
0.01372 µM
  relative viability: 1.14 ± 0.037
0.04115 µM
  relative viability: 1.12 ± 0.069
0.1235 µM
  relative viability: 1.06 ± 0.058
0.3704 µM
  relative viability: 1.01 ± 0.071
1.111 µM
  relative viability: 0.953 ± 0.035
3.333 µM
  relative viability: 0.847 ± 0.035
10 µM
  relative viability: 0.642 ± 0.018

## CC1(C)CNc2cc(NC(=O)c3cccnc3NCc3ccncc3)ccc21 [Motesanib]
0.00017 µM
  relative viability: 1.04 ± 0.033
0.00051 µM
  relative viability: 0.999 ± 0.073
0.00152 µM
  relative viability: 0.999 ± 0.065
0.00457 µM
  relative viability: 1.01 ± 0.084
0.01372 µM
  relative viability: 0.978 ± 0.016
0.04115 µM
  relative viability: 0.9719 ± 0.0041
0.1235 µM
  relative viability: 0.99 ± 0.079
0.3704 µM
  relative viability: 0.94 ± 0.016
1.111 µM
  relative viability: 0.98 ± 0.064
3.333 µM
  relative viability: 1.02 ± 0.043
10 µM
  relative viability: 0.859 ± 0.039

## C[C@@H](c1ccc2nccn2c1)n1nnc2ncc(-c3cnn(C)c3)nc21 [Volitinib]
0.00017 µM
  relative viability: 1.17 ± 0.067
0.00051 µM
  relative viability: 1.17 ± 0.028
0.00152 µM
  relative viability: 1.17 ± 0.022
0.00457 µM
  relative viability: 1.14 ± 0.083
0.01372 µM
  relative viability: 1.18 ± 0.048
0.04115 µM
  relative viability: 1.17 ± 0.034
0.1235 µM
  relative viability: 1.16 ± 0.064
0.3704 µM
  relative viability: 1.15 ± 0.032
1.111 µM
  relative viability: 1.13 ± 0.019
3.333 µM
  relative viability: 1.13 ± 0.018
10 µM
  relative viability: 0.968 ± 0.092

## Cc1ccc(NC(=O)c2ccc(CN3CCN(C)CC3)cc2)cc1Nc1nc(-c2cccnc2)cs1 [Masitinib]
0.00017 µM
  relative viability: 1.04 ± 0.017
0.00051 µM
  relative viability: 1.07 ± 0.038
0.00152 µM
  relative viability: 1.11 ± 0.029
0.00457 µM
  relative viability: 1.08 ± 0.027
0.01372 µM
  relative viability: 1.07 ± 0.034
0.04115 µM
  relative viability: 1.1 ± 0.025
0.1235 µM
  relative viability: 1.06 ± 0.043
0.3704 µM
  relative viability: 1 ± 0.025
1.111 µM
  relative viability: 0.851 ± 0.014
3.333 µM
  relative viability: 0.508 ± 0.066
10 µM
  relative viability: 0.0554 ± 0.0057
